Data taken from ChEMBL document CHEMBL6134901 (J Med Chem, 2025).
≈ marks a conversion by molar mass, not a printed value.

Key:
Pseudomonas aeruginosa = assay: Antibacterial activity against Pseudomonas aeruginosa ATCC 27853; type: functional
Staphylococcus aureus [1] = assay: Antibacterial activity against Staphylococcus aureus NRS119; type: functional
Klebsiella aerogenes = assay: Antibacterial activity against Enterobacter aerogenes ATCC 35029; type: functional
Bifidobacterium longum = assay: Antibacterial activity against Bifidobacterium longum HM-846; type: functional
Clostridioides difficile [2] = assay: Antibacterial activity against metronidazole-resistant Clostridium difficile […] clinical isolate; type: functional
Clostridioides difficile [3] = assay: Antibacterial activity against fidaxomicin-resistant Clostridium difficile RMA23691 clinical isolate; type: functional
Staphylococcus aureus [4] = assay: Antibacterial activity against Staphylococcus aureus NRS100; type: functional
Enterococcus faecalis = assay: Antibacterial activity against Enterococcus faecalis ATCC 29212; type: functional
Bacteroides fragilis = assay: Antibacterial activity against Bacteroides fragilis HM-709; type: functional
Klebsiella pneumoniae = assay: Antibacterial activity against Klebsiella pneumoniae ATCC 700603; type: functional
Escherichia coli = assay: Antibacterial activity against Escherichia coli ATCC 25922; type: functional
Enterococcus faecium [5] = assay: Antibacterial activity against vancomycin-susceptible Enterococcus faecium 119-39A; type: functional
Eubacterium sp. = assay: Antibacterial activity against Eubacterium sp. HM-178; type: functional
Clostridioides difficile [6] = assay: Antibacterial activity against Clostridium difficile RMA23828; type: functional
[7] = system: Limosilactobacillus reuteri; assay: Antibacterial activity against vancomycin-susceptible Lactobacillus reuteri HM-102 clinical isolate; type: functional
Enterococcus faecium [8] = assay: Antibacterial activity against vancomycin-resistant Enterococcus faecium 106 clinical isolate; type: functional
Fusobacterium nucleatum = assay: Antibacterial activity against methicillin/oxacillin/tetracycline-resistant mecA-positive Fusobacterium nucleatum HM-992; type: functional
Staphylococcus aureus [9] = assay: Antibacterial activity against vancomycin-resistant Staphylococcus aureus VRS1 clinical isolate; type: functional
Veillonella = assay: Antibacterial activity against Veillonella sp. HM-49; type: functional
Staphylococcus aureus [10] = assay: Antibacterial activity against Staphylococcus aureus ATCC 29213; type: functional
Lactobacillus gasseri = assay: Antibacterial activity against Lactobacillus gasseri HM-644; type: functional
Clostridioides difficile [11] = assay: Antibacterial activity against Clostridium difficile RMA26675; type: functional
[12] = system: Staphylococcus epidermidis; assay: Antibacterial activity against Staphylococcus epidermidis ATCC 35547; type: functional
Bacillus cereus = assay: Antibacterial activity against Bacillus cereus ATCC 13061; type: functional
[13] = system: Staphylococcus haemolyticus; assay: Antibacterial activity against Staphylococcus haemolyticus ATCC 29970; type: functional
Acinetobacter baumannii = assay: Antibacterial activity against Acinetobacter baumannii ATCC 17961; type: functional
Clostridioides difficile [14] = assay: Antibacterial activity against Clostridium difficile ATTC43255 assessed as spore germination inhibition at 45 uM incubated for 60 mins by spectrometry relative to control; type: functional; settings: ATTC43255, 1 h
Clostridioides difficile [15] = assay: Antibacterial activity against Clostridium difficile ATTC43255 incubated for 24 to 48 hrs anaerobically by colony counting method; type: functional; settings: time 24-48 hrs
[16] = Cytotoxicity against human HepG2 cells incubated for 24 hrs by XTT assay; type: toxicity, cell-based; settings: read-out: LD50
Clostridioides difficile [17] = assay: Antibacterial activity against Clostridium difficile ATTC43255 assessed as spore germination inhibition incubated for 60 mins by spectrometry; type: functional, organism-based; settings: ATTC43255, 1 h
[18] = Selectivity index, ratio of LD50 for cytotoxicity against human HepG2 cells to IC50 for antibacterial activity against Clostridium difficile ATTC43255 assessed as spore germination inhibition; type: toxicity, cell-based; settings: read-out: Ratio LD50/IC50

CCc1c(Cl)c(O)c(Cl)c(O)c1C(=O)O[C@H]1[C@H](O)[C@H](OC)[C@H](OC/C2=C\C=C\C[C@H](O)/C(C)=C/[C@H](CC)[C@@H](O[C@@H]3OC(C)(C)[C@@H](OC(=O)C(C)C)[C@H](O)[C@@H]3O)/C(C)=C/C(C)=C/C[C@@H]([C@@H](C)O)OC2=O)O[C@@H]1C [FIDAXOMICIN]
MIC (Pseudomonas aeruginosa): > 128 µg/mL | MIC (Staphylococcus aureus [1]): 2 µg/mL (≈ 1.89 µM) | MIC (Klebsiella aerogenes): > 128 µg/mL | MIC (Bifidobacterium longum): 0.01 µg/mL (≈ 0.00945 µM) | MIC (Clostridioides difficile [2]): 0.125 µg/mL (≈ 0.118 µM) | MIC (Clostridioides difficile [3]): 4 µg/mL (≈ 3.78 µM) | MIC (Staphylococcus aureus [4]): 16 µg/mL (≈ 15.1 µM) | MIC (Enterococcus faecalis): > 16 µg/mL | MIC (Bacteroides fragilis): > 32 µg/mL | MIC (Klebsiella pneumoniae): > 128 µg/mL | MIC (Escherichia coli): > 128 µg/mL | MIC (Enterococcus faecium [5]): > 16 µg/mL | MIC (Eubacterium sp.): 16 µg/mL (≈ 15.1 µM) | MIC (Clostridioides difficile [6]): > 8 µg/mL | MIC [7]: > 32 µg/mL | MIC (Enterococcus faecium [8]): > 16 µg/mL | MIC (Fusobacterium nucleatum): < 0.06 µg/mL | MIC (Staphylococcus aureus [9]): 64 µg/mL (≈ 60.5 µM) | MIC (Veillonella): 8 µg/mL (≈ 7.56 µM) | MIC (Staphylococcus aureus [10]): 16 µg/mL (≈ 15.1 µM) | MIC (Lactobacillus gasseri): 2 µg/mL (≈ 1.89 µM) | MIC (Clostridioides difficile [11]): 4 µg/mL (≈ 3.78 µM) | MIC [12]: 4 µg/mL (≈ 3.78 µM) | MIC (Bacillus cereus): 16 µg/mL (≈ 15.1 µM) | MIC [13]: 16 µg/mL (≈ 15.1 µM) | MIC (Acinetobacter baumannii): > 128 µg/mL

Cl.NCc1ccc(-c2nc(-c3ccc(Oc4ccc(F)cc4)cc3)no2)cc1
inhibition at 45 µM (Clostridioides difficile [14]): 60% | MIC (Clostridioides difficile [15]): 16 µg/mL | CC50 at 24 h [16]: 38 µg/mL | IC50 (Clostridioides difficile [17]): 45 µM | selectivity ratio [18]: 2

CC(C)Oc1ccc(-c2nc(-c3cccc4c3CC[C@@H]4NCCO)no2)cc1C#N.Cl [OZANIMOD HYDROCHLORIDE]
inhibition at 45 µM (Clostridioides difficile [14]): 62% | MIC (Clostridioides difficile [15]): 64 µg/mL | CC50 at 24 h [16]: 46 µg/mL | IC50 (Clostridioides difficile [17]): 39 µM | selectivity ratio [18]: 3

CC(C)(C)OC(=O)NCc1ccc(-c2nc(-c3ccc(Oc4ccc(C(F)(F)F)cc4)cc3)no2)cc1
inhibition at 45 µM (Clostridioides difficile [14]): < 10%

NCc1ccc(-c2nc(-c3ccnc(N4CCCC4)c3)no2)cc1
inhibition at 45 µM (Clostridioides difficile [14]): 13%

FC(F)(F)c1ccc(Oc2ccc(-c3noc(-c4n[nH]cc4Cl)n3)cc2)cc1
inhibition at 45 µM (Clostridioides difficile [14]): < 10%

FC(F)(F)c1ccc(Oc2ccc(-c3noc(-c4cn[nH]c4)n3)cc2)cc1
inhibition at 45 µM (Clostridioides difficile [14]): < 10%

FC(F)(F)c1ccc(Oc2ccc(-c3noc(-c4n[nH]c5ccccc45)n3)cc2)cc1
inhibition at 45 µM (Clostridioides difficile [14]): < 10%

Oc1ccc(-c2nc(-c3ccc4oc5ccc(F)cc5c4c3)no2)cc1
inhibition at 45 µM (Clostridioides difficile [14]): < 10%

NCc1ccc(-c2nc(-c3ccc(CN4CCCC4)cc3)no2)cc1
inhibition at 45 µM (Clostridioides difficile [14]): < 10%

Oc1ccc(-c2nc(-c3ccc(Oc4ccc(C(F)(F)F)cc4)cc3)no2)cc1O
inhibition at 45 µM (Clostridioides difficile [14]): < 10%

COC(OC)c1ccc(-c2noc(-c3ccc(O)cc3)n2)cc1
inhibition at 45 µM (Clostridioides difficile [14]): < 10%

NCCCCc1nc(-c2ccc(OC3CCCC3)cc2)no1
inhibition at 45 µM (Clostridioides difficile [14]): < 10%

Oc1ccc(-c2nc(-c3ccc(OC(F)(F)F)cc3)no2)cc1
inhibition at 45 µM (Clostridioides difficile [14]): < 10%

NCc1ccc(-c2nc(-c3ccc(OC4CCCC4)cc3)no2)cc1
inhibition at 45 µM (Clostridioides difficile [14]): 41%

Oc1ccc(-c2nc(-c3ccc(Oc4ccccc4CBr)cc3)no2)cc1
inhibition at 45 µM (Clostridioides difficile [14]): 27%

Nc1ccc(-c2nc(-c3ccc(Oc4ccc(C(F)(F)F)cc4)cc3)no2)cc1F
inhibition at 45 µM (Clostridioides difficile [14]): < 10%

NCc1ccc(-c2nc(-c3ccc(Oc4ccc(F)c(F)c4)cc3)no2)cc1
inhibition at 45 µM (Clostridioides difficile [14]): 44%

Nc1cc(Oc2ccccc2)ccc1-c1noc(-c2ccc(O)cc2)n1
inhibition at 45 µM (Clostridioides difficile [14]): 17%

O=C1C[C@H](c2nc(-c3ccc(Oc4ccc(C(F)(F)F)cc4)cc3)no2)CN1
inhibition at 45 µM (Clostridioides difficile [14]): < 10%

NCc1ccc(-c2nc(-c3ccc(O[C@@H]4CCNC4)cc3)no2)cc1
inhibition at 45 µM (Clostridioides difficile [14]): < 10%

CN[C@H](CC(C)C)C(=O)N[C@H]1C(=O)N[C@@H](CC(N)=O)C(=O)N[C@H]2C(=O)N[C@H]3C(=O)N[C@H](C(=O)N[C@H](C(=O)O)c4cc(O)cc(O)c4-c4cc3ccc4O)[C@H](O)c3ccc(c(Cl)c3)Oc3cc2cc(c3O[C@@H]2O[C@H](CO)[C@@H](O)[C@H](O)[C@H]2O[C@H]2C[C@](C)(N)[C@H](O)[C@H](C)O2)Oc2ccc(cc2Cl)[C@H]1O [VANCOMYCIN]
MIC (Pseudomonas aeruginosa): > 128 µg/mL | MIC (Klebsiella aerogenes): > 128 µg/mL | MIC (Bifidobacterium longum): 0.25 µg/mL (≈ 0.173 µM) | MIC (Clostridioides difficile [2]): 0.25 µg/mL (≈ 0.173 µM) | MIC (Enterococcus faecalis): 2 µg/mL (≈ 1.38 µM) | MIC (Bacteroides fragilis): 16 µg/mL (≈ 11 µM) | MIC (Klebsiella pneumoniae): > 128 µg/mL | MIC (Escherichia coli): > 128 µg/mL | MIC (Clostridioides difficile [6]): 0.5 µg/mL (≈ 0.345 µM) | MIC [7]: > 32 µg/mL | MIC (Enterococcus faecium [8]): > 16 µg/mL | MIC (Fusobacterium nucleatum): 0.25 µg/mL (≈ 0.173 µM) | MIC (Staphylococcus aureus [9]): 64 µg/mL (≈ 44.2 µM) | MIC (Veillonella): > 32 µg/mL | MIC (Acinetobacter baumannii): > 128 µg/mL

Oc1ccc(-c2nc(-c3ccc(Oc4cccc(I)c4)cc3)no2)cc1
inhibition at 45 µM (Clostridioides difficile [14]): 37%

CCN(CC)CCc1nc(-c2ccccc2)no1
inhibition at 45 µM (Clostridioides difficile [14]): < 10%
